The target of this assay is KRas G12D (Homo sapiens (Human), UniProt P01116, G12D). The assay is described as follows: KRas G12D Binding Assay (TR-FRET displacement of Cy5 labelled tracer). Particulars: GDP-loaded KRAS G12D (amino acids 1:169), 60 minute incubation at 22° C. As for the experimental part:
After a 60 minute incubation at 22° C., the reaction was measured using a PerkinElmer EnVision multimode plate reader via TR-FRET dual wavelength detection, and the percent of control (POC) calculated using a ratiometric emission factor. […] The POC values were fit to a 4-parameter logistic curve and the IC50 value was determined as the concentration where the curve crosses 50 POC.
ND stands for “not determined.”
Background: TR-FRET usually uses a lanthanide donor and a delayed reading to cut background.

This passage reports IC50 results from patent publication US20230279025A1, “KRAS G12D INHIBITORS” (Mirati Therapeutics, Inc., priority 2020, published 2023).

Sequence of KRas G12D (P01116 other isoform, or with tags, fused parts or gaps G12D): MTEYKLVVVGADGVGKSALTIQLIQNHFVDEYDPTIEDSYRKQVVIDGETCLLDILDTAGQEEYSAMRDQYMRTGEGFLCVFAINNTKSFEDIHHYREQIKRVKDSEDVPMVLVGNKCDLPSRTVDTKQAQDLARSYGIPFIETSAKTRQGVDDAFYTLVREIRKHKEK

On to `O=Cc1cc(CCOc2nc(N3C[C@H]4CC[C@@H](C3)N4)c3cnc(-c4cccc5cccc(Cl)c45)c(F)c3n2)ccc1O` [Example 62, 5-(2-((4-((1R,5S)-3,8-diazabicyclo[3.2.1]octan-3-yl)-7-(8-chloronaphthalen-1-yl)-8-fluoropyrido[4,3-d]pyrimidin-2-yl)oxy)ethyl)-2-hydroxybenzaldehyde], for which the IC50 (commonly the concentration at which inhibition is half-maximal) worked out at 8.41 µM.

`CN1CCC[C@H]1COc1nc(N2C[C@H]3CC[C@@H](C2)N3)c2cnc(-c3cc(O)cc4cccc(Cl)c34)c(F)c2n1` [Example 63, 4-(4-((1R,5S)-3,8-diazabicyclo[3.2.1]octan-3-yl)-8-fluoro-2-(((S)-1-methylpyrrolidin-2-yl)methoxy)pyrido[4,3-d]pyrimidin-7-yl)-5-chloronaphthalen-2-ol] registered a half-inhibitory concentration (IC50) of 0.0004 µM. Against the preceding compound, the IC50 is about 21000-fold lower. On to `CC(C)(C)[Si](C)(C)OCC1CCC2(COc3nc(N4C[C@H]5CC[C@@H](C4)N5)c4cnc(-c5cccc6cccc(Cl)c56)c(F)c4n3)CCCN12` (stereo partly drawn) [Example 64, 4-((1R,5S)-3,8-diazabicyclo[3.2.1]octan-3-yl)-2-((3-(((tert-butyldimethylsilyl)oxy)methyl)tetrahydro-1H-pyrrolizin-7a(5H)-yl)methoxy)-7-(8-chloronaphthalen-1-yl)-8-fluoropyrido[4,3-d]pyrimidine], for which the IC50 is 0.0033 µM. Against the preceding compound, the IC50 is about 8.2-fold higher. `O=C1CCC2(COc3nc(N4C[C@H]5CC[C@@H](C4)N5)c4cnc(-c5cccc6cccc(Cl)c56)c(F)c4n3)CCCN12` (stereo partly drawn) [Example 83, 7a-(((4-((1R,5S)-3,8-diazabicyclo[3.2.1]octan-3-yl)-7-(8-chloronaphthalen-1-yl)-8-fluoropyrido[4,3-d]pyrimidin-2-yl)oxy)methyl)hexahydro-3H-pyrrolizin-3-one bis(2,2,2-trifluoroacetate)] gave an IC50 of 8.69 µM. The compound `Fc1c(-c2cccc3cccc(Cl)c23)ncc2c(N3C[C@H]4CC[C@@H](C3)N4)nc(OCC34CCCN3CC(F)(F)C4)nc12` (stereo partly drawn) [Example 93, 4-((1R,5S)-3,8-diazabicyclo[3.2.1]octan-3-yl)-7-(8-chloronaphthalen-1-yl)-2-((2,2-difluorotetrahydro-1H-pyrrolizin-7a(5H)-yl)methoxy)-8-fluoropyrido[4,3-d]pyrimidine bis(2,2,2-trifluoroacetate)] returned an IC50 of 0.105 µM. Then `Fc1ccc2cccc(-c3ncc4c(N5C[C@H]6CC[C@@H](C5)N6)nc(OCC56CCCN5CCC6)nc4c3F)c2c1Cl` [Example 98, 4-((1R,5S)-3,8-diazabicyclo[3.2.1]octan-3-yl)-7-(8-chloro-7-fluoronaphthalen-1-yl)-8-fluoro-2-((tetrahydro-1H-pyrrolizin-7a(5H)-yl)methoxy)pyrido[4,3-d]pyrimidine bis(2,2,2-trifluoroacetate)], with 0.001 µM.

`CC1(N)CN(c2nc(N3C[C@H]4CC[C@@H](C3)N4)c3cnc(-c4cccc5cccc(Cl)c45)c(F)c3n2)C1` [Example 125, 1-(4-((1R,5S)-3,8-diazabicyclo[3.2.1]octan-3-yl)-7-(8-chloronaphthalen-1-yl)-8-fluoropyrido[4,3-d]pyrimidin-2-yl)-3-methylazetidin-3-amine] yielded a concentration for half-maximal inhibition (IC50) of 0.667 µM. Take `CCC1(N)CN(c2nc(N3C[C@H]4CC[C@@H](C3)N4)c3cnc(-c4cccc5cccc(Cl)c45)c(F)c3n2)C1` [Example 128, 1-(4-((1R,5S)-3,8-diazabicyclo[3.2.1]octan-3-yl)-7-(8-chloronaphthalen-1-yl)-8-fluoropyrido[4,3-d]pyrimidin-2-yl)-3-ethylazetidin-3-amine]: the 50% inhibitory concentration (IC50) amounted to 0.501 µM. The compound `Fc1c(-c2cccc3cccc(Cl)c23)ncc2c(N3C[C@H]4CC[C@@H](C3)N4)nc(OCCC3CC(F)(F)C3)nc12` [Example 129, 4-((I R,5S)-3,8-diazabicyclo[3.2.1]octan-3-yl)-7-(8-chloronaphthalen-1-yl)-2-(2-(3,3-difluorocyclobutyl)ethoxy)-8-fluoropyrido[4,3-d]pyrimidine] gave a half-maximal inhibitory concentration (IC50) of 4.09 µM. `Fc1c(-c2cccc3cccc(Cl)c23)ncc2c(N3C[C@H]4CC[C@@H](C3)N4)nc(N3CC4(CCN4)C3)nc12` [Example 130, 4-((1R,5S)-3,8-diazabicyclo[3.2.1]octan-3-yl)-7-(8-chloronaphthalen-1-yl)-8-fluoro-2-(1,6-diazaspiro[3.3]heptan-6-yl)pyrido[4,3-d]pyrimidine] had an IC50 of 1.65 µM. For the compound `Fc1c(-c2cccc3cccc(Cl)c23)ncc2c(N3C[C@H]4CC[C@@H](C3)N4)nc(OC[C@@H]3CCCO3)nc12` [Example 136, 4-((1R,5S)-3,8-diazabicyclo[3.2.1]octan-3-yl)-7-(8-chloronaphthalen-1-yl)-8-fluoro-2-(((S)-tetrahydrofuran-2-yl)methoxy)pyrido[4,3-d]pyrimidine], the IC50 turned out to be 5.15 µM. `Fc1c(-c2cccc3cccc(Cl)c23)ncc2c(N3C[C@H]4CC[C@@H](C3)N4)nc(OC[C@H]3CCCO3)nc12` [Example 137, 4-((1R,5S)-3,8-diazabicyclo[3.2.1]octan-3-yl)-7-(8-chloronaphthalen-1-yl)-8-fluoro-2-(((R)-tetrahydrofuran-2-yl)methoxy)pyrido[4,3-d]pyrimidine] registered an IC50 of 2.63 µM. Against the preceding compound, the IC50 is about 2-fold lower. In turn, `CO[C@H](C)COc1nc(N2C[C@H]3CC[C@@H](C2)N3)c2cnc(-c3cccc4cccc(Cl)c34)c(F)c2n1` [Example 138, 4-((1R,5S)-3,8-diazabicyclo[3.2.1]octan-3-yl)-7-(8-chloronaphthalen-1-yl)-8-fluoro-2-((R)-2-methoxypropoxy)pyrido[4,3-d]pyrimidine] displayed a 50% inhibitory concentration (IC50) of 8.07 µM. Compared with the last compound, the IC50 is about 3.1-fold higher. To `Nc1ccc(CCOc2nc(N3C[C@H]4CC[C@@H](C3)N4)c3cnc(-c4cccc5cccc(Cl)c45)c(F)c3n2)cn1` [Example 141, 5-(2-((4-((1R,5S)-3,8-diazabicyclo[3.2.1]octan-3-yl)-7-(8-chloronaphthalen-1-yl)-8-fluoropyrido[4,3-d]pyrimidin-2-yl)oxy)ethyl)pyridin-2-amine] belongs 0.891 µM; to `Cn1nccc1CCOc1nc(N2C[C@H]3CC[C@@H](C2)N3)c2cnc(-c3cccc4cccc(Cl)c34)c(F)c2n1` [Example 144, 4-((1R,5S)-3,8-diazabicyclo[3.2.1]octan-3-yl)-7-(8-chloronaphthalen-1-yl)-8-fluoro-2-(2-(1-methyl-1H-pyrazol-5-yl)ethoxy)pyrido[4,3-d]pyrimidine], 1.7 µM.

For the compound `Cn1ccc(CCOc2nc(N3C[C@H]4CC[C@@H](C3)N4)c3cnc(-c4cccc5cccc(Cl)c45)c(F)c3n2)n1` [Example 145, 4-((1R,5S)-3,8-diazabicyclo[3.2.1]octan-3-yl)-7-(8-chloronaphthalen-1-yl)-8-fluoro-2-(2-(1-methyl-1H-pyrazol-3-yl)ethoxy)pyrido[4,3-d]pyrimidine], the IC50 turned out to be 5 µM. Compound `Cn1cc(CCOc2nc(N3C[C@H]4CC[C@@H](C3)N4)c3cnc(-c4cccc5cccc(Cl)c45)c(F)c3n2)cn1` [Example 146, 4-((1R,5S)-3,8-diazabicyclo[3.2.1]octan-3-yl)-7-(8-chloronaphthalen-1-yl)-8-fluoro-2-(2-(1-methyl-1H-pyrazol-4-yl)ethoxy)pyrido[4,3-d]pyrimidine] came in with an IC50 of 2.29 µM. The compound `Cn1cnc2ccc(Oc3nc(N4C[C@H]5CC[C@@H](C4)N5)c4cnc(-c5cccc6cccc(Cl)c56)c(F)c4n3)cc21` [Example 148, 4-((1R,5S)-3,8-diazabicyclo[3.2.1]octan-3-yl)-7-(8-chloronaphthalen-1-yl)-8-fluoro-2-((1-methyl-1H-benzo[d]imidazol-6-yl)oxy)pyrido[4,3-d]pyrimidine] registered an IC50 of 5.18 µM.

As for `CO[C@H]1C[C@@H](COc2nc(N3C[C@H]4CC[C@@H](C3)N4)c3cnc(-c4cccc5cccc(Cl)c45)c(F)c3n2)N(C)C1` [Example 149, 4-((1R,5S)-3,8-diazabicyclo[3.2.1]octan-3-yl)-7-(8-chloronaphthalen-1-yl)-8-fluoro-2-(((2S,4S)-4-methoxy-1-methylpyrrolidin-2-yl)methoxy)pyrido[4,3-d]pyrimidine], the IC50 turned out to be 0.87 µM. For `Fc1c(-c2cccc3cccc(Cl)c23)ncc2c(N3C[C@H]4CC[C@@H](C3)N4)nc(OCc3cccn4ccnc34)nc12` [Example 150, 4-((1R,5S)-3,8-diazabicyclo[3.2.1]octan-3-yl)-7-(8-chloronaphthalen-1-yl)-8-fluoro-2-(imidazo[1,2-a]pyridin-8-ylmethoxy)pyrido[4,3-d]pyrimidine], the IC50 is 1.98 µM. Against the preceding compound, the IC50 is about 2.3-fold higher. In turn, `O[C@@H]1C[C@@H]2CN(c3nc(N4CCC4)nc4c(F)c(-c5cccc6cccc(Cl)c56)ncc34)C[C@H]1N2` [Example 152, (1R,5R,6R)-3-(2-(azetidin-1-yl)-7-(8-chloronaphthalen-1-yl)-8-fluoropyrido[4,3-d]pyrimidin-4-yl)-3,8-diazabicyclo[3.2.1]octan-6-ol] had an IC50 of 2.65 µM. The compound `Cn1cnnc1CCOc1nc(N2C[C@H]3CC[C@@H](C2)N3)c2cnc(-c3cccc4cccc(Cl)c34)c(F)c2n1` [Example 154, 4-((1R,5S)-3,8-diazabicyclo[3.2.1]octan-3-yl)-7-(8-chloronaphthalen-1-yl)-8-fluoro-2-(2-(4-methyl-4H-1,2,4-triazol-3-yl)ethoxy)pyrido[4,3-d]pyrimidine] registered an IC50 of 6.53 µM. Compound `O[C@@H]1C[C@@H]2CN(c3nc(OCCC(F)(F)F)nc4c(F)c(-c5cccc6cccc(Cl)c56)ncc34)C[C@H]1N2` [Example 155, (1R,5R,6R)-3-(7-(8-chloronaphthalen-1-yl)-8-fluoro-2-(3,3,3-trifluoropropoxy)pyrido[4,3-d]pyrimidin-4-yl)-3,8-diazabicyclo[3.2.1]octan-6-ol] showed an IC50 of 3.42 µM.

In turn, `CN1CCC[C@H]1COc1nc(N2CC3CCC(C(N)=O)(C2)N3)c2cnc(-c3cc(O)cc4ccccc34)c(F)c2n1` (stereo partly drawn) [Example 159, 3-(8-fluoro-7-(3-hydroxynaphthalen-1-yl)-2-(((S)-1-methylpyrrolidin-2-yl)methoxy)pyrido[4,3-d]pyrimidin-4-yl)-3,8-diazabicyclo[3.2.1]octane-1-carboxamide bis(2,2,2-trifluoroacetate)] had an IC50 of 0.331 µM.
